Source: US9469854B2, “Pharmaceutical composition for treating liver diseases” (Academia Sinica, priority 2014, dated 2016)

Columns and labels:
[1] = tested on: ACACB; experiment: qRT-PCR mRNA expression in HepG2 cells; format: cell-based, human
Protocol: (§1) The human HepG2 cells and HEK 293T cells used in the following examples were originally obtained from the American Tissue Culture Collection (ATCC, USA). The human HCC HepG2 cell line was cultured in Minimum Essential Medium Eagle (Sigma) supplemented with 10% fetal bovine serum (FBS) (Invitrogen), 2.2 g/L of sodium bicarbonate (Sigma), 0.1 mM of non-essential amino acids (Caisson), 1 mM of sodium pyruvate (Invitrogen), and 10 of ml/L penicillin-streptomycin-amphotericin solution (Biological Industries). Human HEK-293T cells were maintained in high-glucose Dulbecco's modified eagle medium (Invitrogen) supplemented with 10% FBS and 3.7 g/L of sodium bicarbonate (Sigma). Both cell lines were cultured at 37° C. and 5% CO2. A 50 mM stock solution of berberine chloride (Sigma-Aldrich) was prepared in dimethyl sulfoxide (DMSO). Cells were treated with 40 μM of berberine chloride or 0.08% DMSO as the control. For induction of lipid droplets formation in cultured cells, 200 μM of oleic acid (Sigma-Aldrich) was added into the culture medium for 24 h. Total RNA was extracted using a TRIZOL reagent (Invitrogen) according to the manufacturer's protocol. The total RNA quantity was measured using a NanoDrop ND-1000 spectrophotometer (Nanodrop Technologies). The total RNA quality and integrity were assayed using an Agilent 2100 bioanalyzer with an RNA 6000 nano kit (Agilent Technologies). Total RNAs (1 μg) were reverse-transcribed into cDNA by using M-MuLV Reverse Transcriptase (Thermo) and Oligo(dT)12-18 primers (Invitrogen) according to the manufacturer's protocol. The cDNA were then used for a real-time PCR with a LightCycler 480 SYBR Green I Master (Roche) by using primers shown in the following Table 1. The gene expression levels were normalized to GAPDH levels. […] Cells were incubated for 24 h or 48 h with a microRNA mimic or inhibitor prior to RNA purification for gene expression analysis, and were incubated for 72 h for protein expression analysis.

[2] = tested on: MAT1A; experiment: qRT-PCR mRNA expression in HepG2 cells; format: cell-based, human
Protocol: as §1

[3] = tested on: MAT2A; experiment: qRT-PCR mRNA expression in HepG2 cells; format: cell-based, human; details: for decrease in mRNA expression of MAT2A: HepG2, 50 nM mimic transfection
Protocol: as §1

[4] = tested on: MAT2B; experiment: qRT-PCR mRNA expression in HepG2 cells; format: cell-based, human
Protocol: as §1

[5] = tested on: ACACA; experiment: qRT-PCR mRNA expression in primary human hepatocytes; format: cell-based; details: PHH
Protocol: (§2) The primary human hepatocytes from Caucasian donors were purchased from Invitrogen and cultured following the manufacturer's instructions. The hepatocytes were thawed and transferred into cryopreserved hepatocytes recovery medium (CM7000, Invitrogen), centrifuging at room temperature, 100×g for 10 min. Then, the hepatocytes were diluted to seeding density with plating medium (CM3000, Invitrogen) and added into collagen I-coated plates (Invitrogen). These plates were incubated at 37° C. for 4-6 hours under 5% CO2 for forming a monolayer. Then, plating medium was replaced by overlay incubation medium (CM4000 and 0.35 mg/mL Geltrex™ Matrix, Invitrogen), and the incubation medium was replaced daily. In the following examples, hepatocytes form 3 to 4 donors were used for experiments. A 50 mM stock solution of berberine chloride (Sigma-Aldrich) was prepared in dimethyl sulfoxide (DMSO). Cells were treated with 40 μM of berberine chloride or 0.08% DMSO as the control. For induction of lipid droplets formation in cultured cells, 200 μM of oleic acid (Sigma-Aldrich) was added into the culture medium for 24 h. Total RNA was extracted using a TRIZOL reagent (Invitrogen) according to the manufacturer's protocol. The total RNA quantity was measured using a NanoDrop ND-1000 spectrophotometer (Nanodrop Technologies). The total RNA quality and integrity were assayed using an Agilent 2100 bioanalyzer with an RNA 6000 nano kit (Agilent Technologies). Total RNAs (1 μg) were reverse-transcribed into cDNA by using M-MuLV Reverse Transcriptase (Thermo) and Oligo(dT)12-18 primers (Invitrogen) according to the manufacturer's protocol. The cDNA were then used for a real-time PCR with a LightCycler 480 SYBR Green I Master (Roche) by using primers shown in the following Table 1. The gene expression levels were normalized to GAPDH levels.

[6] = tested on: ACACB; experiment: as above; format: cell-based; details: PHH
Protocol: as §2

[7] = tested on: ACSM2A; experiment: as above; format: cell-based; details: PHH, 40 μM berberine, 2-4 h
Protocol: as §2

[8] = tested on: DGAT2; experiment: as above; format: cell-based; details: PHH
Protocol: as §2

[9] = tested on: HLCS; experiment: as above; format: cell-based
Protocol: as §2

[10] = tested on: IL6R; experiment: as above; format: cell-based; details: PHH, 40 μM berberine, 4-8 h
Protocol: as §2

[11] = tested on: MTOR; experiment: as above; format: cell-based; details: for decrease in MTOR expression: 50 nM mimic transfection
Protocol: as §2

[12] = tested on: NAMPT; experiment: as above; format: cell-based; details: PHH, 40 μM berberine, 4-8 h
Protocol: as §2

[13] = tested on: RPTOR; experiment: as above; format: cell-based; details: for decrease in RPTOR expression: 50 nM mimic transfection
Protocol: as §2

[14] = HepG2, 40 μM berberine, up to 8 h
[15] = HepG2, 50 nM mimic transfection, 48 h
[16] = 24 h, cells not named in b149 (primary human hepatocytes)

Molecule: COc1ccc2cc3[n+](cc2c1OC)CCc1cc2c(cc1-3)OCO2 [berberine]
- ACACB expression ([1]; HepG2, berberine (data not shown)): consistently decreased
- MAT1A mRNA expression change [2, 14]: did not change substantially
- MAT2A mRNA level decrease ([3]; HepG2, 40 μM berberine, 2 h vs 0.08% DMSO): 1.8 fold
- MAT2A mRNA level decrease ([3]; HepG2, 40 μM berberine, 4 h (lowest value) vs 0.08% DMSO): 3.8 fold
- MAT2A mRNA level change (given as increase) ([3]; HepG2, 40 μM berberine, 8 h vs 0.08% DMSO): 2.2 fold
- MAT2B mRNA expression change [4, 14]: did not change substantially
- ACACA expression decrease ([5]; 40 μM berberine, 8 h): 2.1 fold
- mRNA expression of ACACB ([6]; 40 μM berberine, 4-8 h): decreases
- mRNA expression of ACSM2A [7]: considerably decreases
- changes in DGAT2 expression levels ([8]; 40 μM berberine, 2-8 h): not significant
- mRNA expression of HLCS ([9]; PHH, 40 μM berberine, 4-8 h): decreases
- mRNA expression of IL6R [10]: decreases
- mRNA expression of MTOR ([11]; PHH, 40 μM berberine, 4-8 h): decreases
- mRNA expression of NAMPT [12]: increase
- mRNA expression of RPTOR ([13]; PHH, 40 μM berberine, 4-8 h): decreases

Molecule: hsa-miR-21-3p (CAACACCAGUCGAUGGGCUGU; listed as RNA, chemistry not given here) [miR-21-3p mimic]
- decrease in mRNA expression of ACACB ([1]; HepG2, mimic transfection, 24 h): 50%
- decrease in mRNA expression of MAT1A [2, 15]: but not in that of MAT1A
- decrease in mRNA expression of MAT2A ([3]; 24 hours): > 50%
- decrease in mRNA expression of MAT2A ([3]; 48 h): > 50%
- decrease in mRNA expression of MAT2B [4, 15]: > 50%
- ACACA expression decrease ([5]; 50 nM mimic transfection, 48 h): 1.6 fold
- ACACB expression decrease ([6]; 50 nM mimic transfection, 48 h): 1.8 fold
- decrease in mRNA expression levels of DGAT2 ([8]; mimic transfection, 48 h): 1.5 fold
- decrease in HLCS expression ([9]; 50 nM mimic transfection, 48 h, cells not given): 1.5 fold
- decrease in MTOR expression [11, 16]: 1.4 fold
- decrease in MTOR expression ([11]; 48 h, cells not given): 2.5 fold
- decrease in RPTOR expression [13, 16]: 1.6 fold
- decrease in RPTOR expression ([13]; 48 h, cells not given): 2.2 fold
